Consider nine compounds from PubChem BioAssay (NCI).

Some test systems named below: SW-620 colon; SR leukemia; BT-549 breast; A498 renal; A549 NSCLC; MDA-N; HL-60(TB) leukemia; MCF7 breast; SK-OV-3 ovarian; SN12C renal; ACHN renal; SNB-19 CNS; MDA-MB-435; SF-295 CNS; NCI-H522 lung; PC-3 prostate; SK-MEL-28 melanoma.
What all share (assay): DTP human tumour cell line panel, 48 h

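Cultured in 96-well plates, cells were exposed to test compound for 48 hours across five concentrations. TGI: total growth inhibition.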

The term TGI denotes the concentration giving total growth inhibition. A higher TGI goes with lower sensitivity of the cells. With `CO/C(=N\N=C\c1ccc(OC)c(OC)c1)c1ccncc1`, the total growth inhibition concentration (TGI) in the assay with SW-620 colon, with SR leukemia, with BT-549 breast, in the assay on A498 renal, in the assay with A549 NSCLC and with MDA-N was over 10 µM in each case. Moreover, the TGI in the assay with HL-60(TB) leukemia, in the assay on MCF7 breast, with SK-OV-3 ovarian and with SN12C renal was over 10 µM in each case.

Turning to `CCN(CC)CC1CCCCN1CC(=O)N1c2ccccc2C(=O)Nc2cccnc21` (configuration not stated), the TGI with ACHN renal was over 100 µM; in the assay on SW-620 colon it was over 100 µM; in the assay with SNB-19 CNS, over 100 µM; in the assay on SR leukemia it was 58.1 µM; with MDA-MB-435, over 100 µM; in the assay on SF-295 CNS, over 100 µM. The TGI in the assay on A498 renal was over 100 µM; with NCI-H522 lung it was over 100 µM; with A549 NSCLC it was 35.4 µM; in the assay on MDA-N, over 100 µM; with PC-3 prostate, over 100 µM; in the assay with HL-60(TB) leukemia it was 35 µM. The TGI in the assay on SK-MEL-28 melanoma, in the assay on MCF7 breast, in the assay with SK-OV-3 ovarian and with SN12C renal was over 100 µM each time.

For the compound `O=C1CCCN1C(=O)CS(=O)(=O)c1ccccc1`, the total growth inhibition concentration (TGI) in the assay on ACHN renal, in the assay on SW-620 colon, with SNB-19 CNS, with SR leukemia, with MDA-MB-435 and in the assay on BT-549 breast was over 100 µM throughout. In addition, the total growth inhibition concentration (TGI) in the assay on SF-295 CNS, with A498 renal, in the assay on NCI-H522 lung, with A549 NSCLC, with MDA-N and in the assay with PC-3 prostate was over 100 µM in each case. Besides, the concentration for total growth inhibition (TGI) in the assay with SK-MEL-28 melanoma, in the assay with SK-OV-3 ovarian and in the assay on SN12C renal was over 100 µM throughout.

Regarding `C=CC[C@@H](N)C(=O)N(C)[C@@H](C)[C@@H](O)c1ccccc1`, the total growth inhibition concentration (TGI) in the assay with ACHN renal, in the assay on SW-620 colon, in the assay on SNB-19 CNS, in the assay on MDA-MB-435, in the assay with BT-549 breast and with SF-295 CNS was over 100 µM each time. Moreover, the TGI is over 100 µM in the assay on A498 renal; 44.2 µM in the assay with NCI-H522 lung; over 100 µM in the assay on A549 NSCLC; over 100 µM in the assay on MDA-N; over 100 µM with PC-3 prostate; over 100 µM with HL-60(TB) leukemia. For the same compound, the TGI with SK-MEL-28 melanoma and in the assay on SK-OV-3 ovarian was over 100 µM each time.

As to `COc1cc2c3c(c1)CCCN3CCC2`, the TGI with ACHN renal, in the assay on SW-620 colon, in the assay with SNB-19 CNS, with SR leukemia, in the assay on MDA-MB-435 and with SF-295 CNS was over 10 µM throughout. In addition, the concentration for total growth inhibition (TGI) in the assay on A498 renal, in the assay on NCI-H522 lung, in the assay with A549 NSCLC, in the assay with MDA-N, in the assay with PC-3 prostate and in the assay with HL-60(TB) leukemia was over 10 µM throughout. Also, the concentration for total growth inhibition (TGI) in the assay with SK-MEL-28 melanoma, in the assay on MCF7 breast, with SK-OV-3 ovarian and with SN12C renal was over 10 µM in each case.

As to `O=[N+]([O-])c1cccc2nnccc12`, the TGI is 30 µM in the assay with ACHN renal; over 100 µM in the assay on SW-620 colon; 87.1 µM in the assay on SNB-19 CNS; 32.5 µM with MDA-MB-435; over 100 µM with BT-549 breast; over 100 µM in the assay on SF-295 CNS. The TGI with NCI-H522 lung was 20.6 µM; in the assay with A549 NSCLC, over 100 µM; in the assay on MDA-N, 34.5 µM; in the assay on PC-3 prostate it was over 100 µM; in the assay on HL-60(TB) leukemia it was 14.4 µM; with MCF7 breast, over 100 µM. The TGI in the assay on SK-OV-3 ovarian and with SN12C renal was over 100 µM each time.

With `C[n+]1ccc(/C2=C3\C=CC(=N3)/C(c3cc[n+](C)cc3)=c3/cc/c([nH]3)=C(\c3cc[n+](C)cc3)C3=N/C(=C(/c4cc[n+](C)cc4)C4C=CC2N4)C=C3)cc1`, the TGI with ACHN renal was over 100 µM; in the assay on SW-620 colon it was over 100 µM; in the assay with SNB-19 CNS, over 100 µM; in the assay with SR leukemia it was over 32.9 µM; with MDA-MB-435 it was over 100 µM; in the assay with BT-549 breast, over 100 µM. Also, the TGI with SF-295 CNS, in the assay on A498 renal, in the assay on NCI-H522 lung, with A549 NSCLC, in the assay with MDA-N and in the assay on HL-60(TB) leukemia was over 100 µM in each case. In addition, the TGI in the assay on SK-MEL-28 melanoma, in the assay with MCF7 breast, in the assay with SK-OV-3 ovarian and with SN12C renal was over 100 µM each time.

Turning to `CC(=O)C1C(=O)C(=O)N(c2cccc([N+](=O)[O-])c2)C1=O` (configuration not stated), the TGI in the assay with ACHN renal, in the assay on SW-620 colon, in the assay with SNB-19 CNS, with MDA-MB-435, in the assay with BT-549 breast and in the assay with SF-295 CNS was over 100 µM each time. The TGI with NCI-H522 lung, in the assay with A549 NSCLC, with MDA-N, in the assay with PC-3 prostate, in the assay with HL-60(TB) leukemia and in the assay with SK-MEL-28 melanoma was over 100 µM throughout. For the same compound, the TGI in the assay with MCF7 breast, with SK-OV-3 ovarian and with SN12C renal was over 100 µM throughout.

With `NC(N)=NCCCC(NC(=O)c1cccc2c(=O)c3ccccc3[nH]c12)C(=O)O` (configuration not stated), the concentration for total growth inhibition (TGI) in the assay on ACHN renal, in the assay on SW-620 colon, in the assay with SNB-19 CNS, with SR leukemia, with MDA-MB-435 and in the assay on SF-295 CNS was over 100 µM throughout. The TGI in the assay on A498 renal, in the assay with NCI-H522 lung, in the assay with A549 NSCLC, in the assay on MDA-N, with PC-3 prostate and in the assay with HL-60(TB) leukemia was over 100 µM throughout. The total growth inhibition concentration (TGI) with SK-MEL-28 melanoma, in the assay on MCF7 breast, in the assay on SK-OV-3 ovarian and with SN12C renal was over 100 µM each time.
